Columns and labels:
ROCK1 = ROCK1 (Homo sapiens, UniProt Q13464); experiment: ROCK1 kinase enzymatic activity (HTRF, STK2 substrate); assay type: biochemical; settings: ROCK1 kinase reacted at room temperature for 20 minutes
Description: (§1) The kinase activity data was expressed by comparing the kinase activity of the test compound and that of the blank group (containing only DMSO), and the IC50 value was obtained by curve fitting using Prism software (GraphPad7.0).

ROCK2 = ROCK2 (Homo sapiens, UniProt O75116); experiment: ROCK2 kinase enzymatic activity (HTRF, STK2 substrate); assay type: biochemical; settings: ROCK2 kinase reacted at room temperature for 30 minutes
Description: as §1

ROCK2, sequence (O75116 whole entry): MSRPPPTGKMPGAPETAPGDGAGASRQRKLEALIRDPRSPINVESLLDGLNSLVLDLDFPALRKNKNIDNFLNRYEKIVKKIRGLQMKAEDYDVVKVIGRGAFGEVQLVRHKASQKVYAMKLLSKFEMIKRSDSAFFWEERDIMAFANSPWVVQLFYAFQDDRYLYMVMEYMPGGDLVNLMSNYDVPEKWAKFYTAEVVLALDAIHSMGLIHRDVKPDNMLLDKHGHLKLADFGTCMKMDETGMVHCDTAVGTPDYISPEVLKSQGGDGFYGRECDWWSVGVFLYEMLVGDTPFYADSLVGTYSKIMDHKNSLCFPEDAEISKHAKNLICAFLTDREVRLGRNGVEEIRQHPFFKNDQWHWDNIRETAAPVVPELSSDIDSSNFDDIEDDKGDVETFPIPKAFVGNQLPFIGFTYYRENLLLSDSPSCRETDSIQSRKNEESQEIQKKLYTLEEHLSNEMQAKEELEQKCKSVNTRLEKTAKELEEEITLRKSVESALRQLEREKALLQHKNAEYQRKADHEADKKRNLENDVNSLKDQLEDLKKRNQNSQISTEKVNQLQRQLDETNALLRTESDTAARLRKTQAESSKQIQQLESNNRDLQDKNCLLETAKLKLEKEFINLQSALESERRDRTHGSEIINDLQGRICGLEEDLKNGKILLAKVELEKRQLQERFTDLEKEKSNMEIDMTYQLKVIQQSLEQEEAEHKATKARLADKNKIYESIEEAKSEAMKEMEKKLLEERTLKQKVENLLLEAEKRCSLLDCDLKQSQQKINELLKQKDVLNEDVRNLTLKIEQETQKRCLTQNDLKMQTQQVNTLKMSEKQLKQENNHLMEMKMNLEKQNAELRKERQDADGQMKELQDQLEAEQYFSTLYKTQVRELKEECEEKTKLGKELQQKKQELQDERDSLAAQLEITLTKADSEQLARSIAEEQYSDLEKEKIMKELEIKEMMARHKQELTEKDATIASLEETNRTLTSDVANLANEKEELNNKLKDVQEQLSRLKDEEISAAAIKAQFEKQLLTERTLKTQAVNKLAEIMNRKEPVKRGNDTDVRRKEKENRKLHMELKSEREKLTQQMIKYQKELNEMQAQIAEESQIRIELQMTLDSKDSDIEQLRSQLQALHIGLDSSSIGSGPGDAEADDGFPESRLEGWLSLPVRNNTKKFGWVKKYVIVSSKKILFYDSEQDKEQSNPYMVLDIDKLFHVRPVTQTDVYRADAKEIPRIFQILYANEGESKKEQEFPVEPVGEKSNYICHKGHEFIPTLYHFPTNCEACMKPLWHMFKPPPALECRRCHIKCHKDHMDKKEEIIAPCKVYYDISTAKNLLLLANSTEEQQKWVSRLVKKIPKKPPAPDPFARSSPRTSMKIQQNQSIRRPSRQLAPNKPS
ROCK1, sequence (Q13464 whole entry): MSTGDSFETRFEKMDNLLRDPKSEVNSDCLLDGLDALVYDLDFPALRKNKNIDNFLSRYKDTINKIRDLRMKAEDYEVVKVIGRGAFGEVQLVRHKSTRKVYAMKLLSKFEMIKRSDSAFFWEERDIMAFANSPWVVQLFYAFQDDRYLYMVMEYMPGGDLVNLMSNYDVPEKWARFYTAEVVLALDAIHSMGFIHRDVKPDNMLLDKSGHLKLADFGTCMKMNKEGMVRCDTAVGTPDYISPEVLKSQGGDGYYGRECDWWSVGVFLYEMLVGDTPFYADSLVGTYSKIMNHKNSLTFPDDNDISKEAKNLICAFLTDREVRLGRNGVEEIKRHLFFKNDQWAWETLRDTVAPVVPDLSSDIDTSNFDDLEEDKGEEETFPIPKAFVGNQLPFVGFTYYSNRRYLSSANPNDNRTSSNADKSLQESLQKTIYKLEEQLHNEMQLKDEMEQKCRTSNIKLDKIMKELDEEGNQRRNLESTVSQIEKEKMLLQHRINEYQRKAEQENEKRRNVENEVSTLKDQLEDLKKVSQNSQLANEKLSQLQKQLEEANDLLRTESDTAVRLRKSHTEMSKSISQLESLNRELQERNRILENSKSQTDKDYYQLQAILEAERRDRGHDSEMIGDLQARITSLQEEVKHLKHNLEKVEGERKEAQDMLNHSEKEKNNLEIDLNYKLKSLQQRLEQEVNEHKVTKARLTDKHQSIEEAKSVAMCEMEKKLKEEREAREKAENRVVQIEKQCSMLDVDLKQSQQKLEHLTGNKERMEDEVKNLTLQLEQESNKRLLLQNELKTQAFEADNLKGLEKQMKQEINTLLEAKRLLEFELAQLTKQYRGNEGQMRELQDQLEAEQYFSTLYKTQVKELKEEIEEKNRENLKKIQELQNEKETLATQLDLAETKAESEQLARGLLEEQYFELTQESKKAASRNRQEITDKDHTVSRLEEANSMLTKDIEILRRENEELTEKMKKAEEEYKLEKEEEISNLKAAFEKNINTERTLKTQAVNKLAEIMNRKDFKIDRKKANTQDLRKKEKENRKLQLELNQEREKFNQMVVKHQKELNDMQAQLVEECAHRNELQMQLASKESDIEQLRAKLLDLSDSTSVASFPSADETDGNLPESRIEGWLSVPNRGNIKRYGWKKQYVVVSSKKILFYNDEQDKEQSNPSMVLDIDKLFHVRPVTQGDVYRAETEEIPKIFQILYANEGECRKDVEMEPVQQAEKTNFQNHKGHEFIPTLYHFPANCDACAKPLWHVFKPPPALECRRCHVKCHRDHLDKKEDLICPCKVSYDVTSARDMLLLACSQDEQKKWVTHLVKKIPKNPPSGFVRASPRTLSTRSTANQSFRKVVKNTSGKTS

| IC50 (ROCK1) | IC50 (ROCK2) | Compound |
| --- | --- | --- |
| < 5 nM | < 5 nM | CC(N)CS(=O)(=O)N1CC(CC#N)(n2cc(-c3ncnc4[nH]ccc34)c(N)n2)C1 (centres unmarked) [Example 86, 2-(3-(3-amino-4-(7H-pyrrolo[2,3-d]pyrimidin-4-yl)-1H-pyrazol-1-yl)-1-((2-aminopropyl)sulfonyl)azetidine-3-yl)acetonitrile] |
| < 50 nM | < 50 nM | CC(C)S(=N)(=O)N1CC(CC#N)(n2cc(-c3ncnc4[nH]ccc34)c(N)n2)C1 (centres unmarked) [Example 39, 2-(3-(3-amino-4-(7H-pyrrolo[2,3-d]pyrimidin-4-yl)-1H-pyrazol-1-yl)-1-(prop-2-yl-sulfonylimino)azetidine-3-yl)acetonitrile] |
| < 10 nM | < 10 nM | C[C@H](O)C(=O)N1CC(CC#N)(n2cc(-c3ncnc4[nH]ccc34)c(N)n2)C1 [Example 33, (S)-2-(3-(3-amino-4-(7H-pyrrolo[2,3-d]pyrimidin-4-yl)-1H-pyrazol-1-yl)-1-(2-hydroxypropionyl)azetidine-3-yl)acetonitrile] |
| < 5 nM | < 5 nM | N#CCC1(n2cc(-c3ncnc4[nH]ccc34)c(N)n2)CN(S(=O)(=O)CCC(F)(F)F)C1 [Example 4, 2-(3-(3-amino-4-(7H-pyrrolo[2,3-d]pyrimidin-4-yl)-1H-pyrazol-1-yl)-1-((3,3,3-trifluoropropyl)sulfonyl)azetidine-3-yl)acetonitrile] |
| > 100 nM | > 100 nM | CCS(=O)(=O)N1CC(CC#N)(n2cc(-c3cc(-c4cnn(C)c4)nn4ccnc34)c(N)n2)C1 [Example 80] |
| > 100 nM | > 100 nM | CS(=O)(=O)N1CC(CC#N)(n2cc(-c3cc(NC4CCOCC4)ncn3)c(N)n2)C1 [Example 75, 2-(3-(3-amino-4-(6-((tetrahydro-2H-pyran-4-yl)amino)pyrimidin-4-yl)-1H-pyrazol-1-yl)-1-(methylsulfonyl)azetidine-3-yl)acetonitrile] |
| < 100 nM | < 50 nM | N#CCC1(n2cc(-c3ncnc4[nH]ccc34)c(N)n2)CN(S(=O)(=O)NS(N)(=O)=O)C1 [Example 42, 3-(3-amino-4-(7H-pyrrolo[2,3-d]pyrimidin-4-yl)-1H-pyrazol-1-yl)-3-(cyanomethyl)-N-sulfamoylazetidine-1-sulfonamide] |
| < 50 nM | > 100 nM | CC(C)S(=O)(=O)N1CC(CC#N)(n2cc(-c3ncnc4[nH]ccc34)c(O)n2)C1 [Example 57, 2-(3-(3-hydroxy-4-(7H-pyrrolo[2,3-d]pyrimidin-4-yl)-1H-pyrazol-1-yl)-1-(isopropylsulfonyl)azetidine-3-yl)acetonitrile] |
| < 50 nM | < 50 nM | N#CCC1(n2cc(-c3ncnc4[nH]ccc34)c(N)n2)CN(S(=O)(=O)NCC(=O)O)C1 [Example 54] |
| < 5 nM | < 5 nM | CNC(=O)N1CC(CC#N)(n2cc(-c3ncnc4[nH]ccc34)c(N)n2)C1 [Example 10, 3-(3-amino-4-{7H-pyrrolo[2,3-d]pyrimidin-4-yl}pyrazol-1-yl)-3-(cyanomethyl)-N-methylazetidine-1-formamide] |
| < 5 nM | < 10 nM | N#CCC1(n2cc(-c3ncnc4[nH]ccc34)c(N)n2)CN(C(=O)C2CC(F)(F)C2)C1 [Example 32, 2-(3-(3-amino-4-(7H-pyrrolo[2,3-d]pyrimidin-4-yl)-1H-pyrazol-1-yl)-1-(3,3-difluorocyclobutane-1-carbonyl)azetidine-3-yl)acetonitrile] |
| < 50 nM | < 50 nM | N#CCC1(n2cc(-c3ncnc4[nH]ccc34)c(N)n2)CN(C(=O)C2CC2)C1 [Example 22, 2-(3-(3-amino-4-(7H-pyrrolo[2,3-d]pyrimidin-4-yl)-1H-pyrazol-1-yl)-1-(cyclopropanecarbonyl)azetidine-3-yl)acetonitrile] |
| > 100 nM | > 100 nM | CS(=O)(=O)N1CC(CC#N)(n2cc(-c3ncnc(NC4CCOCC4)n3)c(N)n2)C1 [Example 72, 2-(3-(3-amino-4-(4-((tetrahydro-2H-pyran-4-yl)amino)-1,3,5-triazin-2-yl)-1H-pyrazol-1-yl)-1-(methylsulfonyl)azetidine-3-yl)acetonitrile] |
| < 50 nM | < 50 nM | CN(C)CC(=O)N1CC(CC#N)(n2cc(-c3ncnc4[nH]ccc34)c(N)n2)C1 [Example 28, 2-(3-(3-amino-4-(7H-pyrrolo[2,3-d]pyrimidin-4-yl)-1H-pyrazol-1-yl)-1-(dimethylglycine)azetidine-3-yl)acetonitrile] |
| < 10 nM | < 10 nM | CN(C)CCNS(=O)(=O)N1CC(CC#N)(n2cc(-c3ncnc4[nH]ccc34)c(N)n2)C1 [Example 52, 3-(3-amino-4-(7H-pyrrolo[2,3-d]pyrimidin-4-yl)-1H-pyrazol-1-yl)-3-(cyanomethyl)-N-(2-(dimethylamino)ethyl)azetidine-1-sulfonamide] |
| > 100 nM | > 100 nM | CS(=O)(=O)N1CC(CC#N)(n2cc(-c3cc(NCCO)ncn3)c(N)n2)C1 [Example 74, 2-(3-(3-amino-4-(6-((2-hydroxyethyl)amino)pyrimidin-4-yl)-1H-pyrazol-1-yl)-1-(methylsulfonyl)azetidine-3-yl)acetonitrile] |
| < 10 nM | < 10 nM | CNS(=O)(=O)N1CC(CC#N)(n2cc(-c3ncnc4[nH]ccc34)c(N)n2)C1 [Example 49, 3-(3-amino-4-(7H-pyrrolo[2,3-d]pyrimidin-4-yl)-1H-pyrazol-1-yl)-3-(cyanomethyl)-N-methylazetidine-1-sulfonamide] |
| < 10 nM | < 10 nM | N#CCC1(n2cc(-c3ncnc4[nH]ccc34)c(N)n2)CN(C(=O)[C@@H]2C[C@H]2C#N)C1 [Example 35, (1R, 2R)-2-(3-(3-amino-4-(7H-pyrrolo[2,3-d]pyrimidin-4-yl)-1H-pyrazol-1-yl)-3-(cyanomethyl)azetidine-1-carbonyl)cyclopropane-1-nitrile] |
| > 100 nM | > 100 nM | CNC(=O)c1nn(C2(CC#N)CN(S(=O)(=O)C(C)C)C2)cc1-c1ncnc2[nH]ccc12 [Example 64, 1-(3-(cyanomethyl)-1-(isopropylsulfonyl)azetidine-3-yl)-N-methyl-4-(7H-pyrrolo[2,3-d]pyrimidin-4-yl)-1H-pyrazol-3-formamide] |
| > 100 nM | > 100 nM | CCS(=O)(=O)N1CC(CC#N)(n2cc(-c3ncnc4[nH]ccc34)c(C(=O)NC)n2)C1 [Example 63, 1-(3-(cyanomethyl)-1-(ethylsulfonyl)azetidine-3-yl)-N-methyl-4-(7H-pyrrolo[2,3-d]pyrimidin-4-yl)-1H-pyrazol-3-formamide] |
| > 100 nM | > 100 nM | CNC(=O)c1nn(C2(CC#N)CN(S(=O)(=O)C3CC3)C2)cc1-c1ncnc2[nH]ccc12 [Example 65, 1-(3-(cyanomethyl)-1-(cyclopropylsulfonyl)azetidine-3-yl)-N-methyl-4-(7H-pyrrolo[2,3-d]pyrimidin-4-yl)-1H-pyrazol-3-formamide] |
| < 50 nM | > 100 nM | N#CCC1(n2cc(-c3ncnc4[nH]ccc34)c(O)n2)CN(S(=O)(=O)C2CC2)C1 [Example 58, 2-(1-(cyclopropylsulfonyl)-3-(3-hydroxy-4-(7H-pyrrolo[2,3-d]pyrimidin-4-yl)-1H-pyrazol-1-yl)azetidine-3-yl)acetonitrile] |

Source: patent publication US20260224571A1, “AZACYCLOALKANE COMPOUND AND PHARMACEUTICAL COMPOSITION, AND USE THEREOF” (Prime Gene Therapeutics Co., Ltd., priority 2023, published 2026)
